Measured values: patent US12227495B2, “Herbicidal compounds” (SYNGENTA CROP PROTECTION AG, priority 2018, dated 2025)

Assays:
Format in all cases: in vivo
[1] = system: Echinochloa crus-galli (ECHCG); experiment: Post-emergence herbicide test, glasshouse, percentage damage; conditions: 1000 g/ha, evaluated after 13 days
Procedure, shortened: (§1)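 Percentage damage, recorded 13 days after treatment, is given as a five-point score (1=0-20%, 2=21-40%, 3=41-60%, 4=61-80%, 5=81-100%). Plants grown in soil pots under 24/16 °C, 14 h light and 65% humidity received a 500 g/ha spray (unless stated otherwise).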

Setaria faberi (SETFA) [2] = experiment: as above; conditions: 1000 g/ha, evaluated after 13 days
Procedure, shortened: as §1

[3] = system: Ipomoea hederacea (IPOHE); experiment: as above; conditions: 1000 g/ha, evaluated after 13 days
Procedure, shortened: as §1

Lolium perenne (LOLPE) [4] = experiment: as above; conditions: 1000 g/ha, evaluated after 13 days
Procedure, shortened: as §1

Solanum nigrum (SOLNI) [5] = experiment: as above; conditions: 1000 g/ha, evaluated after 13 days
Procedure, shortened: as §1

[6] = system: Amaranthus retoflexus (AMARE); experiment: as above; conditions: 1000 g/ha, evaluated after 13 days
Procedure, shortened: as §1

[7] = system: Echinochloa crus-galli (ECHCG); experiment: Pre-emergence herbicide test, glasshouse, percentage damage; conditions: rate 1000 g/ha, evaluated after 13 days
Procedure, shortened: as §1

Setaria faberi (SETFA) [8] = experiment: as above; conditions: rate 1000 g/ha, evaluated after 13 days
Procedure, shortened: as §1

[9] = system: Ipomoea hederacea (IPOHE); experiment: as above; conditions: rate 1000 g/ha, evaluated after 13 days
Procedure, shortened: as §1

Lolium perenne (LOLPE) [10] = experiment: as above; conditions: rate 1000 g/ha, evaluated after 13 days
Procedure, shortened: as §1

Solanum nigrum (SOLNI) [11] = experiment: as above; conditions: rate 1000 g/ha, evaluated after 13 days
Procedure, shortened: as §1

[12] = system: Amaranthus retoflexus (AMARE); experiment: as above; conditions: rate 1000 g/ha, evaluated after 13 days
Procedure, shortened: as §1

Fc1cc(Cl)cnc1Oc1cccc(F)c1-n1cc(C(F)(F)F)cn1 [Compound A58]
percentage damage caused to the plant, ECHCG [1]: 4 (4=61-80%)
percentage damage caused to the plant, SETFA (Setaria faberi (SETFA) [2]): 5 (5=81-100%)
percentage damage caused to the plant, IPOHE [3]: 5 (5=81-100%)
percentage damage caused to the plant, LOLPE (Lolium perenne (LOLPE) [4]): 5 (5=81-100%)
percentage damage caused to the plant, SOLNI (Solanum nigrum (SOLNI) [5]): 5 (5=81-100%)
percentage damage caused to the plant, AMARE [6]: 5 (5=81-100%)
Pre-emergence Test ECHCG percentage damage (five point scale) [7]: 5 (5=81-100%)
Pre-emergence Test SETFA percentage damage (five point scale) (Setaria faberi (SETFA) [8]): 5 (5=81-100%)
Pre-emergence Test IPOHE percentage damage (five point scale) [9]: 5 (5=81-100%)
Pre-emergence Test LOLPE percentage damage (five point scale) (Lolium perenne (LOLPE) [10]): 5 (5=81-100%)
Pre-emergence Test SOLNI percentage damage (five point scale) (Solanum nigrum (SOLNI) [11]): 5 (5=81-100%)
Pre-emergence Test AMARE percentage damage (five point scale) [12]: 5 (5=81-100%)

Fc1cccc(Oc2nc(Cl)ccc2C(F)(F)F)c1-c1cc(C(F)F)no1 [Compound A80]
percentage damage caused to the plant, ECHCG [1]: 1 (1=0-20%)
percentage damage caused to the plant, SETFA (Setaria faberi (SETFA) [2]): 1 (1=0-20%)
percentage damage caused to the plant, IPOHE [3]: 1 (1=0-20%)
percentage damage caused to the plant, LOLPE (Lolium perenne (LOLPE) [4]): 1 (1=0-20%)
percentage damage caused to the plant, SOLNI (Solanum nigrum (SOLNI) [5]): 5 (5=81-100%)
percentage damage caused to the plant, AMARE [6]: 5 (5=81-100%)
Pre-emergence Test ECHCG percentage damage (five point scale) [7]: 1 (1=0-20%)
Pre-emergence Test SETFA percentage damage (five point scale) (Setaria faberi (SETFA) [8]): 1 (1=0-20%)
Pre-emergence Test IPOHE percentage damage (five point scale) [9]: 1 (1=0-20%)
Pre-emergence Test LOLPE percentage damage (five point scale) (Lolium perenne (LOLPE) [10]): 1 (1=0-20%)
Pre-emergence Test SOLNI percentage damage (five point scale) (Solanum nigrum (SOLNI) [11]): 1 (1=0-20%)
Pre-emergence Test AMARE percentage damage (five point scale) [12]: 2 (2=21-40%)

Fc1cccc(Oc2cccc(OC(F)F)n2)c1-c1cc(C(F)F)no1 [Compound A48]
percentage damage caused to the plant, ECHCG [1]: 1 (1=0-20%)
percentage damage caused to the plant, SETFA (Setaria faberi (SETFA) [2]): 2 (2=21-40%)
percentage damage caused to the plant, IPOHE [3]: 2 (2=21-40%)
percentage damage caused to the plant, LOLPE (Lolium perenne (LOLPE) [4]): 1 (1=0-20%)
percentage damage caused to the plant, SOLNI (Solanum nigrum (SOLNI) [5]): 5 (5=81-100%)
percentage damage caused to the plant, AMARE [6]: 5 (5=81-100%)
Pre-emergence Test ECHCG percentage damage (five point scale) [7]: 1 (1=0-20%)
Pre-emergence Test SETFA percentage damage (five point scale) (Setaria faberi (SETFA) [8]): 1 (1=0-20%)
Pre-emergence Test IPOHE percentage damage (five point scale) [9]: 1 (1=0-20%)
Pre-emergence Test LOLPE percentage damage (five point scale) (Lolium perenne (LOLPE) [10]): 1 (1=0-20%)
Pre-emergence Test SOLNI percentage damage (five point scale) (Solanum nigrum (SOLNI) [11]): 1 (1=0-20%)
Pre-emergence Test AMARE percentage damage (five point scale) [12]: 1 (1=0-20%)

N#Cc1ccc(Oc2cccc(Br)c2-c2cc(C(F)F)no2)nc1 [Compound A102]
percentage damage caused to the plant, ECHCG [1]: 4 (4=61-80%)
percentage damage caused to the plant, SETFA (Setaria faberi (SETFA) [2]): 5 (5=81-100%)
percentage damage caused to the plant, IPOHE [3]: 5 (5=81-100%)
percentage damage caused to the plant, LOLPE (Lolium perenne (LOLPE) [4]): 4 (4=61-80%)
percentage damage caused to the plant, SOLNI (Solanum nigrum (SOLNI) [5]): 5 (5=81-100%)
percentage damage caused to the plant, AMARE [6]: 5 (5=81-100%)
Pre-emergence Test ECHCG percentage damage (five point scale) [7]: 5 (5=81-100%)
Pre-emergence Test SETFA percentage damage (five point scale) (Setaria faberi (SETFA) [8]): 5 (5=81-100%)
Pre-emergence Test IPOHE percentage damage (five point scale) [9]: 4 (4=61-80%)
Pre-emergence Test LOLPE percentage damage (five point scale) (Lolium perenne (LOLPE) [10]): 5 (5=81-100%)
Pre-emergence Test SOLNI percentage damage (five point scale) (Solanum nigrum (SOLNI) [11]): 4 (4=61-80%)
Pre-emergence Test AMARE percentage damage (five point scale) [12]: 5 (5=81-100%)

FC(F)(F)c1cnn(-c2ccccc2Oc2ccc(Cl)cn2)c1 [Compound A17]
percentage damage caused to the plant, ECHCG [1]: 5 (5=81-100%)
percentage damage caused to the plant, SETFA (Setaria faberi (SETFA) [2]): 5 (5=81-100%)
percentage damage caused to the plant, IPOHE [3]: 5 (5=81-100%)
percentage damage caused to the plant, LOLPE (Lolium perenne (LOLPE) [4]): 5 (5=81-100%)
percentage damage caused to the plant, SOLNI (Solanum nigrum (SOLNI) [5]): 5 (5=81-100%)
percentage damage caused to the plant, AMARE [6]: 5 (5=81-100%)
Pre-emergence Test ECHCG percentage damage (five point scale) [7]: 5 (5=81-100%)
Pre-emergence Test SETFA percentage damage (five point scale) (Setaria faberi (SETFA) [8]): 5 (5=81-100%)
Pre-emergence Test IPOHE percentage damage (five point scale) [9]: 5 (5=81-100%)
Pre-emergence Test LOLPE percentage damage (five point scale) (Lolium perenne (LOLPE) [10]): 5 (5=81-100%)
Pre-emergence Test SOLNI percentage damage (five point scale) (Solanum nigrum (SOLNI) [11]): 5 (5=81-100%)
Pre-emergence Test AMARE percentage damage (five point scale) [12]: 5 (5=81-100%)

COc1csc(-c2ccccc2Oc2ncc(Cl)cc2F)c1 [Compound A71]
percentage damage caused to the plant, ECHCG [1]: 1 (1=0-20%)
percentage damage caused to the plant, SETFA (Setaria faberi (SETFA) [2]): 2 (2=21-40%)
percentage damage caused to the plant, IPOHE [3]: 1 (1=0-20%)
percentage damage caused to the plant, LOLPE (Lolium perenne (LOLPE) [4]): 1 (1=0-20%)
percentage damage caused to the plant, SOLNI (Solanum nigrum (SOLNI) [5]): 5 (5=81-100%)
percentage damage caused to the plant, AMARE [6]: 4 (4=61-80%)
Pre-emergence Test ECHCG percentage damage (five point scale) [7]: 1 (1=0-20%)
Pre-emergence Test SETFA percentage damage (five point scale) (Setaria faberi (SETFA) [8]): 1 (1=0-20%)
Pre-emergence Test IPOHE percentage damage (five point scale) [9]: 1 (1=0-20%)
Pre-emergence Test LOLPE percentage damage (five point scale) (Lolium perenne (LOLPE) [10]): 1 (1=0-20%)
Pre-emergence Test SOLNI percentage damage (five point scale) (Solanum nigrum (SOLNI) [11]): 1 (1=0-20%)
Pre-emergence Test AMARE percentage damage (five point scale) [12]: 5 (5=81-100%)
